In patent publication US20130244999A1, “Substituted Heterocyclic Compounds” (Incyte Corporation, priority 2008, published 2013):
pIC50: −log10 of the molar value.

Target: T1, histamine H4 receptor (Homo sapiens, UniProt Q9H3N8)
T1 construct: expressed in transfected cells; host or cells: HEK293SFM cells (membrane preparation)
Test: Inhibition of histamine H4 receptor (Table A1; H4 membrane binding assay)
Conditions: for pIC50: histamine H4 receptor, "> a" = exceeds experiment limit
In short: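 Membranes came from recombinant HEK293SFM cells expressing human H4, homogenized in 50 mM Tris-HCl pH 7.5 with protease inhibitors. Nonspecific binding was set with 1000× unlabeled ligand. Bound radioligand was separated on PEI-treated GF/B filters and counted by liquid scintillation.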

T1 sequence (Q9H3N8 whole entry): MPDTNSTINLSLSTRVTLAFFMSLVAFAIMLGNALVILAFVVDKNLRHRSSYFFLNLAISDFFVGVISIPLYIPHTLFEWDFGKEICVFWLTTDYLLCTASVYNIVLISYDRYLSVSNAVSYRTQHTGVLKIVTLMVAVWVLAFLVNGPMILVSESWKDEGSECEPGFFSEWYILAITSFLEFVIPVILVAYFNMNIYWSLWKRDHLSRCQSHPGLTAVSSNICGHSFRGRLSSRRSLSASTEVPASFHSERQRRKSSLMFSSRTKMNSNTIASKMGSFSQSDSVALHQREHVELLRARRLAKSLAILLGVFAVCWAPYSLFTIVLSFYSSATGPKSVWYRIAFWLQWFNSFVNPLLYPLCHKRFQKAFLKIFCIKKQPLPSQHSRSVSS

Row | Compound | inhibition at 1 µM [%] | pIC50
1 | CN1CCN(c2cc(N3CCc4ccc(NC(=O)N5CCCCC5)cc4C3)nc(N)n2)CC1 [Example 35, N-{2-[2-Amino-6-(4-methylpiperazin-1-yl)pyrimidin-4-yl]-1,2,3,4-tetrahydroisoquinolin-7-yl}piperidine-1-carboxamide] | 66 | 
2 | CC1Cc2ccc(-c3cnn(CC4CC4)c3)cc2CN1c1cc(N2CCN(C)CC2)nc(N)n1 (single isomer, unassigned) [Example 102, 4-[7-[1-(Cyclopropylmethyl)-1H-pyrazol-4-yl]-3-methyl-3,4-dihydroisoquinolin-2(1H)-yl]-6-(4-methylpiperazin-1-yl)pyrimidin-2-amine] |  | 7.38
3 | CC1Cc2ccc(-c3cnn(CCO)c3)cc2CN1c1cc(N2CCN(C)CC2)nc(N)n1 (single isomer, unassigned) [Example 110, 2-(4-{2-[2-Amino-6-(4-methylpiperazin-1-yl)pyrimidin-4-yl]-3-methyl-1,2,3,4-tetrahydroisoquinolin-7-yl}-1H-pyrazol-1-yl)ethanol] |  | 7.46
4 | CC1Cc2ccc(C3CCN(S(C)(=O)=O)CC3)cc2CN1c1cc(N2CCN(C)CC2)nc(N)n1 (stereo not drawn) [Example 148, 4-[3-Methyl-7-[1-(methylsulfonyl)piperidin-4-yl]-3,4-dihydroisoquinolin-2(1H)-yl]-6-(4-methylpiperazin-1-yl)pyrimidin-2-amine] |  | 7.51
5 | CN1CCN(c2cc(N3CCc4ccc(N5CCC(C#N)CC5)cc4C3)nc(N)n2)CC1 [Example 36, 1-{2-[2-Amino-6-(4-methylpiperazin-1-yl)pyrimidin-4-yl]-1,2,3,4-tetrahydroisoquinolin-7-yl}piperidine-4-carbonitrile] |  | 6.41
6 | CCn1cc(-c2ccc3c(c2)CN(c2cc(N4CCN(C)CC4)nc(N)n2)C(C)C3)cn1 (single isomer, unassigned) [Example 107, 4-[7-(1-Ethyl-1H-pyrazol-4-yl)-3-methyl-3,4-dihydroisoquinolin-2(1H)-yl]-6-(4-methylpiperazin-1-yl)pyrimidin-2-amine] |  | 7.38
7 | CC1Cc2ccc(-c3cnn(C4CCCC4)c3)cc2CN1c1cc(N2CCN(C)CC2)nc(N)n1 (single isomer, unassigned) [Example 115, 4-[7-(1-Cyclopentyl-1H-pyrazol-4-yl)-3-methyl-3,4-dihydroisoquinolin-2(1H)-yl]-6-(4-methylpiperazin-1-yl)pyrimidin-2-amine] |  | 7.40
8 | CC1Cc2ccc(-c3cnn(C)c3)cc2CN1c1cc(N2CCCN(C)CC2)nc(N)n1 (stereo not drawn) [Example 125, 4-(4-Methyl-1,4-diazepan-1-yl)-6-[3-methyl-7-(1-methyl-1H-pyrazol-4-yl)-3,4-dihydroisoquinolin-2(1H)-yl]pyrimidin-2-amine] |  | 7.25
9 | CC1Cc2ccc(-c3cnn(CCF)c3)cc2CN1c1cc(N2CCN(C)CC2)nc(N)n1 (single isomer, unassigned) [Example 100, 4-[7-[1-(2-fluoroethyl)-1H-pyrazol-4-yl]-3-methyl-3,4-dihydroisoquinolin-2(1H)-yl]-6-(4-methylpiperazin-1-yl)pyrimidin-2-amine] |  | 7.70
10 | Cc1cc(-c2ccc3c(c2)CN(c2cc(N4CCN(C)CC4)nc(N)n2)CC3)cnc1C(=O)N(C)C [Example 46, 5-{2-[2-Amino-6-(4-methylpiperazin-1-yl)pyrimidin-4-yl]-1,2,3,4-tetrahydroisoquinolin-7-yl}-N,N,3-trimethylpyridine-2-carboxamide] |  | 6.76
11 | CC1Cc2ccc(-c3cc(C(=O)NC4CC4)n(C)c3)cc2CN1c1cc(N2CCN(C)CC2)nc(N)n1 (single isomer, unassigned) [Example 91A, 4-{2-[2-Amino-6-(4-methylpiperazin-1-yl)pyrimidin-4-yl]-3-methyl-1,2,3,4-tetrahydroisoquinolin-7-yl}-N-cyclopropyl-1-methyl-1H-pyrrole-2-carboxamide] |  | 7.31
12 | CC1Cc2ccc(-c3ccc(C(=O)N4CC[C@H](F)C4)nc3)cc2CN1c1cc(N2CCN(C)CC2)nc(N)n1 (single isomer, unassigned) [Example 154B] |  | 6.45
